{"source": "ChEMBL document CHEMBL4725496", "about": "“Escaping from Flatland: Antimalarial Activity of sp-Rich Bridged Pyrrolidine Derivatives” (ACS Med Chem Lett, 2020)"}
{"test_system": "Plasmodium falciparum", "assay": "Antimalarial activity against multi-drug-resistant Plasmodium falciparum Dd2 by LDH assay", "assay_type": "functional, organism-based", "settings": "not given", "units": {"IC50": "µM"}}
{"smiles": "O=C(NCC12CC(CN1Cc1ccccc1)C2)c1cc(Cl)cc(C(F)(F)F)c1", "IC50": 5.4}
{"test_system": "Plasmodium falciparum", "assay": "Antimalarial activity against chloroquine-sensitive Plasmodium falciparum 3D7 infected in human erythrocytes assessed as reduction in parasitemia incubated for 72 hrs by SYBR green dye based fluorescence assay", "assay_type": "functional, organism-based", "settings": "3D7, Erythrocyte", "units": {"IC50": "µM"}}
{"smiles": "COc1ccc(NC(=O)OC(C)(C)C)c(C(=O)NCC23CC(CN2Cc2ccccc2)C3)c1", "IC50": 6.2}
{"smiles": "O=C(/C=C/c1cccc(F)c1)NCC12CC(CN1Cc1ccccc1)C2", "IC50": 22}
{"smiles": "O=C(NCC12CC(CN1Cc1ccccc1)C2)c1ccc(Cl)c(Br)c1", "IC50": 5.2}
{"smiles": "Cc1ccc(-c2cc(C(=O)NCC34CC(CN3Cc3ccccc3)C4)[nH]n2)o1", "IC50": 15}
{"smiles": "O=C(NCC12CC(CN1Cc1ccccc1)C2)c1ccc(-c2ccco2)cc1", "IC50": 9.4}
{"smiles": "O=C(NCC12CC(CN1Cc1ccccc1)C2)c1ccc(Br)s1", "IC50": 12.7}
{"smiles": "COc1cccc2c(C(=O)NCC34CC(CN3Cc3ccccc3)C4)c[nH]c12", "IC50": 19}
{"smiles": "COc1ccc(C2(C(=O)NCC34CC(CN3Cc3ccccc3)C4)CCCC2)cc1", "IC50": 9.6}
{"smiles": "O=C(NCC12CC(CN1Cc1ccccc1)C2)C1CC1c1cc(Cl)cc(Cl)c1", "note": "(configuration not stated)", "IC50": 4.5}
{"smiles": "O=C(NCC12CC(CN1Cc1ccccc1)C2)c1ccc(Br)cc1Cl", "IC50": 8.8}
{"smiles": "O=C(/C=C/c1ccc(F)cc1)NCC12CC(CN1Cc1ccccc1)C2", "IC50": 13}
{"smiles": "O=C(NCC12CC(CN1Cc1ccccc1)C2)c1ccc(C(F)(F)F)cc1Cl", "IC50": 8.7}
{"smiles": "Cc1nn(-c2ccccc2)nc1C(=O)NCC12CC(CN1Cc1ccccc1)C2", "IC50": 14}
{"smiles": "COc1ccc(C(=O)NCC23CC(CN2Cc2ccccc2)C3)cc1Cl", "IC50": 16}
{"smiles": "Cc1cc2[nH]c(C(=O)NCC34CC(CN3Cc3ccccc3)C4)cc2o1", "IC50": 11}
{"smiles": "O=C(NCC12CC(CN1Cc1ccccc1)C2)c1ccc2[nH]ccc2c1", "IC50": 17}
{"smiles": "CC(C)(C)OC(=O)Nc1ccccc1C(=O)NCC12CC(CN1Cc1ccccc1)C2", "IC50": 7.2}
{"smiles": "O=C(NCC12CC(CN1Cc1ccccc1)C2)c1c[nH]c2c(Cl)cccc12", "IC50": 5.1}
{"smiles": "COc1cc(C(=O)NCC23CC(CN2Cc2ccccc2)C3)ccc1Br", "IC50": 5.7}
{"smiles": "O=C(NCC12CC(CN1Cc1ccccc1)C2)c1ccc(Cl)c(C(F)(F)F)c1", "IC50": 3.3}
{"smiles": "O=C(NCC12CC(CN1Cc1ccccc1)C2)c1ccc(-n2cccn2)cc1Cl", "IC50": 19}
{"smiles": "O=C(NCC12CC(CN1Cc1ccccc1)C2)c1ccc(Br)c(Cl)c1", "IC50": 3.6}
{"smiles": "O=C(NCC12CC(CN1Cc1ccccc1)C2)c1cc2cc(Br)ccc2o1", "IC50": 3.9}
{"smiles": "O=C(NCC12CC(CN1Cc1ccccc1)C2)c1ccc(OC(F)(F)F)cc1", "IC50": 12.7}
{"smiles": "O=C(NCC12CC(CN1Cc1ccccc1)C2)c1coc2ccccc12", "IC50": 15}
{"smiles": "O=C(/C=C/c1ccccc1Cl)NCC12CC(CN1Cc1ccccc1)C2", "IC50": 5.8}
{"smiles": "Cc1cc(C(=O)NCC23CC(CN2Cc2ccccc2)C3)ccc1Br", "IC50": 9.4}
{"smiles": "COc1ccc2cc(C(=O)NCC34CC(CN3Cc3ccccc3)C4)ccc2c1", "IC50": 3.6}
{"smiles": "O=C(NCC12CC(CN1Cc1ccccc1)C2)c1cc2c(Br)cccc2[nH]1", "IC50": 1.6}
{"smiles": "O=C(/C=C/c1ccccc1F)NCC12CC(CN1Cc1ccccc1)C2", "IC50": 11}
{"smiles": "O=C(NCC12CC(CN1Cc1ccccc1)C2)c1ccc(OCc2ccccc2)cc1", "IC50": 6.2}
{"smiles": "CC(C)(C)c1cc(C(=O)NCC23CC(CN2Cc2ccccc2)C3)cc(C(C)(C)C)c1", "IC50": 2.6}
{"smiles": "O=C(NCC12CC(CN1Cc1ccccc1)C2)c1ccc2ccccc2c1", "IC50": 14}
{"smiles": "O=C(NCC12CC(CN1Cc1ccccc1)C2)c1cccc(Cl)c1", "IC50": 13}
{"smiles": "Cc1cc(C(=O)NCC23CC(CN2Cc2ccccc2)C3)no1", "IC50": 3.4}
{"smiles": "O=C(NCC12CC(CN1Cc1ccccc1)C2)c1cc(Br)c(Br)s1", "IC50": 3.7}
{"smiles": "O=C(NCC12CC(CN1Cc1ccccc1)C2)c1ccc2cccc(Br)c2n1", "IC50": 9}
{"smiles": "O=C(NCC12CC(CN1Cc1ccccc1)C2)c1cccc(OC(F)(F)F)c1", "IC50": 9.4}
{"smiles": "O=C(NCC12CC(CN1Cc1ccccc1)C2)c1cc(F)cc(C(F)(F)F)c1", "IC50": 8.9}
{"smiles": "O=C(Cc1cccc(C(F)(F)F)c1)NCC12CC(CN1Cc1ccccc1)C2", "IC50": 22}
{"smiles": "COc1cccc(C(=O)NCC23CC(CN2Cc2ccccc2)C3)c1C", "IC50": 15}
{"smiles": "O=C(Cc1ccc(Cl)c(Cl)c1)NCC12CC(CN1Cc1ccccc1)C2", "IC50": 11}
{"smiles": "C=Cc1ccc(C(=O)NCC23CC(CN2Cc2ccccc2)C3)cc1", "IC50": 8.5}
{"smiles": "O=C(NCC12CC(CN1Cc1ccccc1)C2)C1(c2ccc(Cl)cc2)CCC1", "IC50": 6.2}
{"smiles": "O=C(NCC12CC(CN1Cc1ccccc1)C2)c1cc(Br)cs1", "IC50": 22}
{"smiles": "O=C(NCC12CC(CN1Cc1ccccc1)C2)c1cc(F)c(Cl)c(F)c1", "IC50": 12}
{"smiles": "O=C(NCC12CC(CN1Cc1ccccc1)C2)c1ccc2[nH]nc(Br)c2c1", "IC50": 5.5}
{"smiles": "O=C(NCC12CC(CN1Cc1ccccc1)C2)c1ccc(F)c(Cl)c1", "IC50": 8.5}
{"smiles": "O=C(NCC12CC(CN1Cc1ccccc1)C2)c1ccc(F)c(Br)c1", "IC50": 12}
{"smiles": "Cc1ccc(Cl)cc1C(=O)NCC12CC(CN1Cc1ccccc1)C2", "IC50": 19}
{"smiles": "O=C(Cc1ccc(Br)c(F)c1)NCC12CC(CN1Cc1ccccc1)C2", "IC50": 24}
{"smiles": "CC(C)(C)OC(=O)N[C@H](C(=O)NCC12CC(CN1Cc1ccccc1)C2)C1CCCCC1", "IC50": 24}
{"smiles": "O=C(NCC12CC(CN1Cc1ccccc1)C2)c1cc(Cl)cc(C(F)(F)F)c1", "IC50": 1.3}
{"smiles": "O=C(NCC12CC(CN1Cc1ccccc1)C2)c1ccc(Cl)c(Cl)c1", "IC50": 5.1}
{"smiles": "O=C(NCC12CC(CN1Cc1ccccc1)C2)c1ccc(Br)c(F)c1", "IC50": 10}
{"smiles": "CSc1ccc(Cl)c(C(=O)NCC23CC(CN2Cc2ccccc2)C3)c1", "IC50": 18}
{"smiles": "Cn1ccc2ccc(C(=O)NCC34CC(CN3Cc3ccccc3)C4)cc21", "IC50": 7.1}
{"smiles": "O=C(NCC12CC(CN1Cc1ccccc1)C2)C1(c2ccc(Cl)cc2Cl)CC1", "IC50": 1.1}
{"smiles": "O=C(NCC12CC(CN1Cc1ccccc1)C2)c1cc(Br)cc(C(F)(F)F)c1", "IC50": 2.7}
{"smiles": "CCCCCCCCCC(=O)NCC12CC(CN1Cc1ccccc1)C2", "IC50": 7.4}
{"smiles": "O=C(CCCC1CCCCC1)NCC12CC(CN1Cc1ccccc1)C2", "IC50": 13}
{"test_system": "not listed separately", "assay": "Intrinsic clearance in human liver microsome at 1 uM measured upto 60 mins by LC-MS/MS analysis", "assay_type": "ADME", "settings": "microsomes, 1 h", "units": {"CLint": "µL/min/mg"}}
{"smiles": "O=C(NCC12CC(CN1Cc1ccccc1)C2)c1cc(Cl)cc(C(F)(F)F)c1", "CLint": 27}
{"test_system": "not listed separately", "assay": "1-Octanol/phosphate buffered-saline distribution coefficient, logD of compound in pH 7.4 at 75 uM measured after 2 hrs under shaking condition by LC-MS analysis", "assay_type": "physicochemical", "settings": "not given"}
{"smiles": "O=C(NCC12CC(CN1Cc1ccccc1)C2)c1cc(Cl)cc(C(F)(F)F)c1", "logD at 2 h, 75 µM": 3.2}
{"test_system": "Plasmodium falciparum", "assay": "Antimalarial activity against […] Plasmodium falciparum 3D7 by LDH assay", "assay_type": "functional, organism-based", "settings": "not given", "units": {"IC50": "µM"}}
{"smiles": "O=C(NCC12CC(CN1Cc1ccccc1)C2)c1cc(Cl)cc(C(F)(F)F)c1", "IC50": 4.3}
{"test_system": "not listed separately", "assay": "Intrinsic clearance in rat hepatocytes at 1 uM incubated upto 90 mins measured per 10^6 cells by LC-MS/MS analysis", "assay_type": "ADME, cell-based, Hepatocyte", "settings": "1.5 h, time 0-90 min", "units": {"CLint": "µL/min/1e6 cells"}}
{"smiles": "O=C(NCC12CC(CN1Cc1ccccc1)C2)c1cc(Cl)cc(C(F)(F)F)c1", "CLint": 8}
{"test_system": "not listed separately", "assay": "Kinetic solubility of compound in PBS buffer measured after 2 hrs under shaking condition by UV spectroscopic analysis", "assay_type": "physicochemical", "settings": "read-out: Kinetic_solubility", "units": {"solubility kinetic at 2 h": "µM"}}
{"smiles": "O=C(NCC12CC(CN1Cc1ccccc1)C2)c1cc(Cl)cc(C(F)(F)F)c1", "solubility kinetic at 2 h": "> 200"}
{"test_system": "HepG2", "assay": "Cytotoxicity against human HepG2 cells incubated for 72 hrs by Cell Titer Glo assay", "assay_type": "cell-based", "settings": "HepG2, 72 h", "units": {"IC50": "µM"}}
{"smiles": "O=C(NCC12CC(CN1Cc1ccccc1)C2)c1cc(Cl)cc(C(F)(F)F)c1", "IC50": "> 17"}
{"test_system": "Plasmodium falciparum", "assay": "Antimalarial activity against chloroquine-sensitive Plasmodium falciparum 3D7 infected in human erythrocytes assessed as reduction in parasitemia at 10 uM incubated for 72 hrs by SYBR green dye based fluorescence assay relative to control", "assay_type": "functional", "settings": "3D7, Erythrocyte", "units": {"inhibition at 10 µM": "%"}}
{"smiles": "O=C(Cc1cc(F)ccc1F)NCC12CC(CN1Cc1ccccc1)C2", "inhibition at 10 µM": -8.2}
{"smiles": "O=C(NCC12CC(CN1Cc1ccccc1)C2)c1ccccc1Cl", "inhibition at 10 µM": -7.9}
{"smiles": "O=C(Cc1ccc(F)c(Br)c1)NCC12CC(CN1Cc1ccccc1)C2", "inhibition at 10 µM": 40}
{"smiles": "O=C(NCC12CC(CN1Cc1ccccc1)C2)c1cccc(Cl)c1Cl", "inhibition at 10 µM": -8.2}
{"smiles": "O=C(NCC12CC(CN1Cc1ccccc1)C2)c1cccc(Br)c1", "inhibition at 10 µM": 35}
{"smiles": "O=C(NCC12CC(CN1Cc1ccccc1)C2)c1cc(F)ccc1F", "inhibition at 10 µM": 67}
{"smiles": "Cc1cccc(C(=O)NCC23CC(CN2Cc2ccccc2)C3)c1", "inhibition at 10 µM": 7.6}
{"smiles": "O=C(NCC12CC(CN1Cc1ccccc1)C2)c1ccccc1", "inhibition at 10 µM": -20}
{"smiles": "O=C(NCC12CC(CN1Cc1ccccc1)C2)c1ccc(Cl)cc1", "inhibition at 10 µM": 38}
